Laboratory results from US20160145223A1, “Bicyclyl-Substituted Isothiazoline Compounds” (BASF SE, priority 2013, published 2016).

Legend:
Type in all cases: in vivo
[1] = tested on: Boll Weevil (Anthonomus grandis); assay: Boll weevil insect diet test (B.5); conditions: 120 h, egg and larval mortality, 5 days, in comparison with untreated controls
Experimental: For evaluating control of boll weevil (Anthonomus grandis) the test unit consisted of 96-well-microtiter plates containing an insect diet and 5-10 A. grandis eggs.
The compounds were formulated using a solution containing 75% v/v water and 25% v/v DMSO. Different concentrations of formulated compounds were sprayed onto the insect diet at 5 μl, using a custom built micro atomizer, at two replications.
After application, microtiter plates were incubated at about 25±1° C. and about 75±5% relative humidity for 5 days. Egg and larval mortality was then visually assessed.

[2] = tested on: Tobacco Budworm (Heliothis virescens); assay: Tobacco budworm insect diet test (B.4); conditions: 120 h, egg and larval mortality, 5 days, in comparison with untreated controls
Experimental: For evaluating control of tobacco budworm (Heliothis virescens) the test unit consisted of 96-well-microtiter plates containing an insect diet and 15-25 H. virescens eggs.
The compounds were formulated using a solution containing 75% v/v water and 25% v/v DMSO. Different concentrations of formulated compounds were sprayed onto the insect diet at 10 μl, using a custom built micro atomizer, at two replications.
(§1) After application, microtiter plates were incubated at about 28±1° C. and about 80±5% relative humidity for 5 days. Egg and larval mortality was then visually assessed.

[3] = tested on: Green Peach Aphid (Myzus persicae); assay: Green peach aphid artificial diet test, systemic (B.2); conditions: 72 h, adult aphids on treated artificial diet, 3 days, in comparison with untreated controls
Excerpt: For evaluating control of green peach aphid (Myzus persicae) through systemic means the test unit consisted of 96-well-microtiter plates containing liquid artificial diet under an artificial membrane.
The compounds were formulated using a solution containing 75% v/v water and 25% v/v DMSO. Different concentrations of formulated compounds were pipetted into the aphid diet, using a custom built pipetter, at two replications.
After application, 5-8 adult aphids were placed on the artificial membrane inside the microtiter plate wells. The aphids were then allowed to suck on the treated aphid diet and incubated at about 23±1° C. and about 50±5% relative humidity for 3 days. Aphid mortality and fecundity was then visually assessed.

[4] = tested on: Mediterranean Fruitfly (Ceratitis capitata); assay: Mediterranean fruitfly insect diet test (B.6); conditions: 120 h, egg and larval mortality, 5 days, in comparison with untreated controls
Experimental: For evaluating control of Mediterranean fruitfly (Ceratitis capitata) the test unit consisted of microtiter plates containing an insect diet and 50-80 C. capitata eggs. The compounds were formulated using a solution containing 75% v/v water and 25% v/v DMSO. Different concentrations of formulated compounds were sprayed onto the insect diet at 5 μl, using a custom built micro atomizer, at two replications.
as §1

[5] = tested on: Red Spider Mite (Tetranychus kanzawai); assay: Red spider mite cowpea spray test (B.9); conditions: mites on sprayed cowpea beans, 72 hours after treatment, in comparison with untreated controls
Experimental: The active compound was dissolved at the desired concentration in a mixture of 1:1 (vol:vol) distilled water:acetone. Add surfactant (Kinetic HV) was added at a rate of 0.01% (vol/vol). The test solution was prepared at the day of use.
Potted cowpea beans of 4-5 days of age were cleaned with tap water and sprayed with 1-2 ml of the test solution using air driven hand atomizer. The treated plants were allowed to air dry and afterwards inoculated with 30 or more mites by clipping a cassava leaf section from rearing population. Treated plants were placed inside a holding room at about 25-27° C. and about 50-60% relative humidity. Percent mortality was assessed 72 hours after treatment.

[6] = tested on: Vetch Aphid (Megoura viciae); assay: Vetch aphid broad bean leaf disk test (B.3); conditions: foliar, 120 h, adult aphids on sprayed leaf disks, 5 days, in comparison with untreated controls
Experimental: For evaluating control of vetch aphid (Megoura viciae) through contact or systemic means the test unit consisted of 24-well-microtiter plates containing broad bean leaf disks.
The compounds were formulated using a solution containing 75% v/v water and 25% v/v DMSO. Different concentrations of formulated compounds were sprayed onto the leaf disks at 2.5 μl, using a custom built micro atomizer, at two replications.
After application, the leaf disks were air-dried and 5-8 adult aphids placed on the leaf disks inside the microtiter plate wells. The aphids were then allowed to suck on the treated leaf disks and incubated at about 23±1° C. and about 50±5% relative humidity for 5 days. Aphid mortality and fecundity was then visually assessed.

[7] = tested on: Diamond Back Moth (Plutella xylostella); assay: Diamond back moth leaf-dip test (B.1); conditions: 3rd instar larvae on dipped cabbage leaves, 72 hours after treatment, in comparison with untreated controls
Experimental: The active compound was dissolved at the desired concentration in a mixture of 1:1 (vol:vol) distilled water:aceteone. Surfactant (Kinetic HV) was added at a rate of 0.01% (vol/vol). The test solution was prepared at the day of use.
Leaves of cabbage were dipped in test solution and air-dried. Treated leaves were placed in petri dishes lined with moist filter paper and inoculated with ten 3rd instar larvae. Mortality was recorded 72 hours after treatment. Feeding damages were also recorded using a scale of 0-100%.

[8] = tested on: Rice green leafhopper (Nephotettix virescens); assay: Rice green leafhopper rice seedling spray test (B.8); conditions: adults on sprayed rice seedlings, after 72 hours, in comparison with untreated controls
Experimental: Rice seedlings were cleaned and washed 24 hours before spraying. The active compounds were formulated in 1:1 acetone:water (vol:vol), and 0.01% vol/vol surfactant (Kinetic HV) was added. Potted rice seedlings were sprayed with 5-6 ml test solution, air dried, covered with Mylar cages cages and inoculated with 10 adults. Treated rice plants were kept at about 28-29° C. and relative humidity of about 50-60%. Percent mortality was recorded after 72 hours.

[9] = tested on: Orchid Thrips (Dichromothrips corbetti); assay: Orchid thrips floral-immersion test (B.7); conditions: adult thrips on dipped orchid petals, 72 hours after treatment, in comparison with untreated controls
Experimental: Dichromothrips corbetti adults used for bioassay were obtained from a colony maintained continuously under laboratory conditions. For testing purposes, the test compound is diluted in a 1:1 mixture of acetone:water (vol:vol), plus Kinetic HV at a rate of 0.01% v/v.
Thrips potency of each compound was evaluated by using a floral-immersion technique. All petals of individual, intact orchid flowers were dipped into treatment solution and allowed to dry in Petri dishes. Treated petals were placed into individual re-sealable plastic along with about 20 adult thrips. All test arenas were held under continuous light and a temperature of about 28° C. for duration of the assay. After 3 days, the numbers of live thrips were counted on each petal. The percent mortality was recorded 72 hours after treatment.

O=C(O)c1ccc(C2=NSC(c3cc(Cl)c(F)c(Cl)c3)(C(F)(F)F)C2)c2c1CCC2 (centres unmarked) [Compound 1-1, 7-[5-(3,5-Dichloro-4-fluoro-phenyl)-5-(trifluoromethyl)-4H-isothiazol-3-yl]indane-4-carboxylic acid]
≥ 75%: mortality at 2500 ppm [1] | mortality at 2500 ppm [2] | mortality at 2500 ppm [3]

O=C(NCC(F)(F)F)c1ccc(C2=NSC(c3cc(Cl)c(F)c(Cl)c3)(C(F)(F)F)C2)c2c1CCC2 (centres unmarked) [Compound 1-7, 7-[5-(3,5-Dichloro-4-fluoro-phenyl)-5-(trifluoromethyl)-4H-isothiazol-3-yl]-N-(2,2,2-trifluoroethyl)indane-4-carboxamide]
≥ 75%: mortality at 2500 ppm [4] | mortality at 2500 ppm [1] | mortality at 2500 ppm [2] | mortality at 500 ppm [5] | mortality at 2500 ppm [6] | mortality at 500 ppm [7] | mortality at 2500 ppm [3] | mortality at 500 ppm [8] | mortality at 500 ppm [9]

COC(=O)c1ccc(C2=NSC(c3cc(Cl)c(F)c(Cl)c3)(C(F)(F)F)C2)c2c1CCCC2 (centres unmarked) [Compound 2-1, Methyl 8-[5-(3,5-dichloro-4-fluoro-phenyl)-5-(trifluoromethyl)-4H-isothiazol-3-yl]tetralin-5-carboxylate]
≥ 75%: mortality at 2500 ppm [4] | mortality at 2500 ppm [1] | mortality at 2500 ppm [2]

O=C(O)c1ccc(C2=NSC(c3cc(Cl)c(F)c(Cl)c3)(C(F)(F)F)C2)c2c1CCCC2 (centres unmarked) [Compound 2-2, 8-[5-(3,5-Dichloro-4-fluoro-phenyl)-5-(trifluoromethyl)-4H-isothiazol-3-yl]tetralin-5-carboxylic acid]
≥ 75%: mortality at 2500 ppm [4] | mortality at 2500 ppm [1] | mortality at 2500 ppm [2]

O=C(NCc1ncccn1)c1ccc(C2=NSC(c3cc(Cl)c(F)c(Cl)c3)(C(F)(F)F)C2)c2c1CCCC2 (centres unmarked) [Compound 2-6, 8-[5-(3,5-Dichloro-4-fluoro-phenyl)-5-(trifluoromethyl)-4H-isothiazol-3-yl]-N-(pyrimidin-2-ylmethyl)tetralin-5-carboxamide]
≥ 75%: mortality at 2500 ppm [4] | mortality at 2500 ppm [1] | mortality at 2500 ppm [2] | mortality at 2500 ppm [6] | mortality at 2500 ppm [3]
